Assay [1] deals with T1, HsDBD-F and ATRIP interaction (Homo sapiens, UniProt P27694).
T1 construct: We purified 6xHis-HsDBD-F (amino acids 1–181), synthesized ATRIP peptide; made in house; host or cells: E. coli BL21 (protein); solid-phase synthesis (peptide)
The experiment in a line: MST inhibition of the HsDBD-F binding with ATRIP peptide. As to conditions: 50 nM Cy5-labeled ATRIP peptide. From the text: (§1) Samples were then loaded into MST capillaries.
(§2) We used one site binding to obtain a dissociation constant (Kd) and standard 4-parameter logistic curve (Sigmoidal curve) analysis to obtain the IC50 value of JC-229. We used GraphPad Prism software.

For assay [2], the system named is HeLa. The experiment in a line: AlamarBlue cell viability of HeLa cells. The format is cell-based, human. The procedure: To determine the inhibitory effect of JC-229 on human cells, HeLa and HEK293 cells were suspended in 180 μl D-MEM with 10% FBS and plated at a density of 2 × 10^4 cells/ml in triplicate. […] Percent viability was plotted using GraphPad Prism software. […] We estimated the EC50 values using the concentration of JC-229 that causes a 50% reduction of cell viability (inhibitor vs. normalized response, variable slope).

Assay [3] relates to TbRPA1, γH2A, VSG3 protein levels in T. brucei cells. Description: Immunoblotting of TbRPA1, γH2A, VSG3. It is filed as cell-based, Trypanosoma brucei. As to conditions: 10 µM. From the text: Cells were harvested at indicated time points and suspended in Laemmli buffer (Bio-Rad) at 0.25 million cells per µl. Denatured proteins from whole cells were separated on a 4–20% gradient SDS-PAGE gel (Bio-Rad) and transferred to a nitrocellulose membrane (GE Healthcare). The membranes were probed with polyclonal antibodies against TbRPA1 (a gift from Bibo Li laboratory, ProSci Inc., ID: 21371, dilution factor 1:1,000) or γH2A (generated by ABclonal for this study, antibody ID E16070 (P), dilution factor 1:1,000), or monoclonal mouse antibodies against VSG3 (Antibody and Bioresource Core facility, MSKCC, catalog number cloneVSG224-11D6, lot EQ.11-Pur.-A, dilution factor 1:1,000) or Tubulin (Sigma, catalog number T7451, clone 6-11B-1, lot 0000149704, dilution 1:5000) in 1x PBS with 0.1% Tween 20 and 1% milk (Bio-Rad) at 4 °C overnight. The membranes were then incubated with secondary antibodies conjugated with Horseradish Peroxidase (HRP) (GE Healthcare; Rabbit HRP: catalog number NA934V, lot 17640116; Mouse HRP: catalog number NA931V, lot 17041904, dilution 1:5000) for the detection of corresponding proteins using chemiluminescence (Hyglo ELC solution from Denville Scientific, catalog number E2400; ChemiDoc Imaging System from Bio-Rad).

The test system of assay [4] is T. brucei TbRPA1 sKO cells. Description: AlamarBlue cytotoxicity on TbRPA1 single knock-out (sKO) T. brucei cells. For orientation: The colour change of resazurin is a common sign of viable cells or microbes.
Description: To determine the viability of TbRPA1-depleted cells, we carried out the AlamarBlue assay (Thermo Fisher, catalog number A50101), an established colorimetric technique that detects metabolically active cells by measuring resorufin converted from resazurin by reducing the environment of live cells[70]. Cells from each time point were incubated with AlamarBlue dye for 4–6 h, and the percentage of live cells was determined[70]. Synergy H1 microplate reader (BioTek) was used with 560/590 nm (excitation/emission) filter settings and relative fluorescence unit (RFU) values were obtained. The percentage of viable cells were calculated from the RFU values.
Assay [5] deals with T2, HsRPA complex (Homo sapiens, UniProt P27694).
T2 construct: made in house; host or cells: E. coli BL21
Description: MST inhibition of ssDNA-binding activity, HsRPA complex. As to conditions: dT32, MST.
Excerpt: as §1, §2

Assay [6] concerns T. brucei cells. Description: DNA synthesis assay by BrdU pulse labeling. The format is cell-based, Trypanosoma brucei. The settings on record: 10 µM, after 8 h of treatment. The procedure:
The 5-Bromo-2′-deoxyuridine (BrdU) incorporation assay was performed as described previously in ref. [49]. BrdU (Sigma-Aldrich, catalog number B5002) was added to cell cultures to a final concentration of 500 μM and incubated for 40 min at 37 °C. About 20 million cells were harvested and fixed in ice-cold 70% ethanol. DNA in fixed cells was denatured in 0.1 N HCl (Fisher Scientific) with 0.5% Tween 20 (Sigma-Aldrich) and 1% BSA (Jackson Immunoresearch) for 20 min at room temperature. To stain newly incorporated DNA, fixed cells were incubated with 1 µg/ml mouse anti-BrdU antibody (BD Pharmingen, catalog number 555627, lot 6084615, dilution 1:500) at room temperature for 2.5 h and then with 4 µg/ml donkey anti-mouse Alexa 488 (Invitrogen, catalog number A-21202, lot 94C2-1, dilution 1:500) at room temperature for 1 h in the dark. Bulk DNA was stained with 5 µg/ml PI by incubating at room temperature for 30 min in the dark. Samples were analyzed by flow cytometry (FACSVia, BD Biosciences) and FlowJo.

Assay [7] concerns the target LmexRPA1 DBD-AB. Description: MST inhibition of ssDNA-binding activity, LmexRPA1 DBD-AB. Details: species or system L. mexicana. The settings on record: dT32, MST.
Excerpt: as §1, §2

“And” between values parts separate entries of the source, which are not always exact repeats. Identical values can stand only once. “Also recorded” adds a separate entry of the source. Like-named read-outs stand apart in the source and are kept apart here.

In general, IC50 refers to the concentration that gives 50% inhibition.

T2 sequence (P27694 whole entry): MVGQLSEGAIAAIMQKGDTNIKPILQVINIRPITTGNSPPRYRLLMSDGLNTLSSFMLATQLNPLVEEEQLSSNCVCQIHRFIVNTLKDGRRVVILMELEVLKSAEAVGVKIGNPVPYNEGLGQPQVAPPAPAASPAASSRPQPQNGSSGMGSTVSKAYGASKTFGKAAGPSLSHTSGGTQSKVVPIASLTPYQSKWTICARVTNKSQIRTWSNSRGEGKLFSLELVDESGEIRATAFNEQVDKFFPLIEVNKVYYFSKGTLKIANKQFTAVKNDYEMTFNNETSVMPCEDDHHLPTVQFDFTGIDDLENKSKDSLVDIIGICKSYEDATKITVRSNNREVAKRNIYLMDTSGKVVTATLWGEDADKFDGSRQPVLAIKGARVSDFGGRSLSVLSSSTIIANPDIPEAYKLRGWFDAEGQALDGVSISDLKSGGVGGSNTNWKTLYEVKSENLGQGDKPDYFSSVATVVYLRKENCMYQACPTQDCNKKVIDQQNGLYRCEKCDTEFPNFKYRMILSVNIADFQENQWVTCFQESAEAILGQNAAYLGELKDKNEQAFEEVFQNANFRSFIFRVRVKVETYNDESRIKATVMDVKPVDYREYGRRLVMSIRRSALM
T2 sequence (P15927 whole entry partner): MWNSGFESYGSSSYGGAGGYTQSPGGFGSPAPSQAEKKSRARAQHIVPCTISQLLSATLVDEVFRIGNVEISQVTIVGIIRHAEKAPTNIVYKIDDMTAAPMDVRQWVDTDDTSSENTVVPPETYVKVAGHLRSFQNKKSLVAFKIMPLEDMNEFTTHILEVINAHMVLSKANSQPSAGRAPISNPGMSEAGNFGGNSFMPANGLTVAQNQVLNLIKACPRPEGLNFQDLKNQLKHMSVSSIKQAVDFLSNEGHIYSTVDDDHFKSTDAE
T2 sequence (P35244 whole entry partner): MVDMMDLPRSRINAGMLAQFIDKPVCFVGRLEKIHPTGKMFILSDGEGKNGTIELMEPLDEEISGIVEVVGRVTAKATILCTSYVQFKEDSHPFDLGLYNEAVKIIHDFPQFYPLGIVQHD
T1 sequence (P27694 1-181): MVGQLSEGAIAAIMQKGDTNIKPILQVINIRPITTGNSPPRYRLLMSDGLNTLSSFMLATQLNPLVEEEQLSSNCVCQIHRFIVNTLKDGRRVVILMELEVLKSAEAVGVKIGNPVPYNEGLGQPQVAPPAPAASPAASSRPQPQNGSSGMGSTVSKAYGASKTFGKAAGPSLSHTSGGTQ

On to `Cc1ccc(C(=O)Nc2ccc(Cl)c(Cl)c2)cc1S(=O)(=O)Nc1ccc(Cl)c(Cl)c1` [JC-229, N-(3,4-dichlorophenyl)−3-(N-(3,4-dichlorophenyl)sulfamoyl)−4-methylbenzamide], for which the IC50 in assay [1] was ~60 µM and 60.8 µM. Further, the “Inhibition of HeLa at EC50 to T. brucei” value in assay [2] (6.5 µM) is recorded as “barely inhibited”. For the same molecule, the EC50 is 32 µM in assay [2] (Homo sapiens, HeLa, 72 h, 0.5-50 μM, 72 h, AlamarBlue, inhibitor vs. normalized response, variable slope (Fig. 3f)); 13.2 µM in assay [2] (Homo sapiens, HeLa, 72 h, Sigmoidal, 4-PL (Suppl. Table 1-B)); 4.93 µM in assay [4] (Trypanosoma brucei, 72 h, read-out: EC50, single KO (∆/WT), 72 h, [Inhibitor] vs. norm response, variable slope); 4.61 µM in assay [4] (Trypanosoma brucei, read-out: EC50, single KO (∆/WT), Suppl. Table 5-B, Sigmoidal, 4-PL); 5 µM in assay [4] (read-out: EC50, single KO (∆/WT), 72 h, [Inhibitor] vs. norm response, variable slope). For the same molecule, the inhibition at 50 µM in assay [2] (Homo sapiens, HeLa, 50 µM, 72 h, read-out: Inhibition of HeLa at maximum concentration) is less than 100%. For the same molecule, in assay [3], the “Levels of VSG3” value is “increased”. Further, the “Levels of γH2A” value in assay [3] is reported as “increased”. In assay [3], the TbRPA1 protein levels entry is reported as “did not change”. In addition, the “IC50, inhibition of HsRPA complex ssDNA binding” value in assay [5] is “No inhibition; also recorded: no inhibitory effect”. Further, the “New DNA synthesis (BrdU incorporation)” value in assay [6] was “completely blocked new DNA synthesis; also recorded: completely blocking DNA synthesis”. In assay [7], the “IC50, inhibition of LmexRPA1 DBD-AB ssDNA binding” value is given as “No inhibition; also recorded: did not inhibit”.

For the origin of these results see paper PMC10359466, “Identification of a small-molecule inhibitor that selectively blocks DNA-binding by Trypanosoma brucei replication protein A1” (Nature Communications, 2023).
